Measured values: patent US10814021B2, “Paramagnetic boron-doped graphene quantum dots and their application for safe magnetic resonance imaging” (priority 2017, dated 2020)
Entries after “also recorded” stand apart in the source; their conditions may differ.

Key:
[1] = system: C57BL/6 wild-type mice; experiment: In vivo cranial T1-weighted MR imaging (neurovasculature), SL-BGQDs vs Gd-DTPA; conditions: 10 min after i.v. 200 μL, 5 mg mL^−1
Source text: (§1) Mice were anesthetized with isoflurane (Piramal Healthcare) and secured in a coil-integrated respiratory monitoring system (SA Instruments; MR-compatible small animal monitoring and gating system) with nose-cone for oxygen/anesthetic, ear-bar head holder, circulating temperature control bath, and residual gas extraction. Abdominal scans were acquired using rapid acquisition with refocused echoes (RARE) T1-weighted (TR/TE=691/5.5 ms, in-plane resolution 93×62 μm^2, matrix 256×284) sequences and slices placed in the transverse plane with 0.5 mm slice thickness and 0.75 mm interslice gaps allowing for coverage from the liver to the pelvic floor. Cranial scans were acquired over the entire head with a 3-dimensional, T1-weighted fast low angle shot (FLASH) scan sequence (TR/TE=16.2/2.7 ms, resolution 106×108×152 μm^3, matrix 284×186×132). Images from this cranial scan sequence were processed using a maximum intensity projection with a 3 mm slab thickness.

[2] = comparison values quoted in text; field not stated; cited from earlier work
[3] = system: C57BL/6 wild-type mice; experiment: In vivo abdominal T1-weighted MR imaging, SL-BGQDs vs Gd-DTPA
Source text: T1-weighted MR images of the cross-sectional views of mice centered within the abdomen were acquired before and after contrast agent injection.
as §1

[4] = In vitro MR imaging (T1/T2 relaxivity) of SL-BGQDs and Gd-DTPA in PBS at 14 T; assay type: physicochemical; conditions: SL-BGQDs per boron molar concentration
Experimental: To evaluate the applicability of using SL-BGQDs as contrast agents for MR imaging, quantitative T1 and T1-weighted MR imaging scan sequences were acquired of SL-BGQD samples in PBS at magnetic field strength of 14T. […] 1/T1 was then plotted against the boron molar concentration in SL-BGQDs (FIG. 13D).
T1- and T2-weighted imaging and quantitative T1 and T2 MR imaging scan sequences were used to investigate the contrast enhancing capabilities of SL-BGQDs. MR imaging was conducted on a Bruker Avance III 600 MHz, 14 T wide bore spectrometer. […] The vials were fixed in place inside a water reservoir; the water served as a homogeneous background signal to minimize magnetic susceptibility variations near samples. The secured vials were placed in a 25 mm single-channel ^1H radiofrequency receiving coil (PB Micro 2.5). […] Quantitative T2 values were measured using a multi-spin multi-echo (MSME) pulse sequence with TR=2500 ms, TE=6.7+6n ms (n=0-16), and 78×156 μm^2 in-plane resolution with 0.5 mm slice thickness for 14 slices. T1-weighted images were acquired with a RARE pulse sequence with TE=5.49 ms, TR=531 ms, 78×52 μm^2 in-plane resolution and 0.5 mm slice thickness for 10 slices. […] T1 values were determined within a circular, 100-voxel region of interest.

Question: With O=C([O-])CN(CCN(CC(=O)[O-])CC(=O)O)CCN(CC(=O)[O-])CC(=O)O.[Gd+3] [Gd-DTPA, gadolinium diethylene penta-acetic acid] as the molecule, how does the “contrast of cranial vasculature, post- vs pre-injection” value [1] read?
Answer: no apparent change in contrast

Question: And the “r1 relaxivity of comparison T1 CAs” value [2]?
Answer: 5.39 mM⁻¹ s⁻¹

Question: And the “T1-weighted contrast enhancement in any organ at 60 min post-injection” value ([3]; 60 min post-injection, i.v. 200 μL, 1 mg mL^−1)?
Answer: completely nullified; also recorded: no T1-weighted signal increase was detected

Question: And the “time of peak contrast enhancement post-injection” value ([3]; i.v. 200 μL, 1 mg mL^−1)?
Answer: ≤ 10 min

Question: And the “signal enhancement in renal cortex, renal pelvis and gall bladder, post- vs pre-injection” value ([3]; i.v. 200 μL, 1 mg mL^−1, 14 T)?
Answer: substantial signal enhancement

Question: What about the imaging time ([3]; summary statement) of the same molecule?
Answer: about 10 min

Question: What about the “longitudinal relaxivity, r1” value [4] of the same molecule?
Answer: 4.3 mM⁻¹ s⁻¹
